Experimental data as given in patent US20230134760A1, “CAR AND NRF2 DUAL ACTIVATOR AGENTS FOR CYCLOPHOSPHAMIDE-BASED AND DOXORUBICIN-BASED TREATMENTS OF CANCER” (priority 2020, published 2023).

What was measured:
[1] = test system: BT549 cells; assay: HPH/BT549 co-culture, CPA cytotoxicity (CCK8); type: cell-based; conditions: HPH/BT549 coculture, DL7076 10 μM + CPA
Experimental: HPH were cultured in collagen-coated 24 well plates and pre-treated with vehicle control (0.1% DMSO), CITCO (1 μM) or DL7076 (5 μM or 10 μM) for 24 h. […] Following the 24 h pre-treatment, coverslips were combined in hepatocyte seeded wells and exposed to designated concentrations of cyclophosphamide in the presence or absence of DL7076 for various time intervals, as indicated.
H9c2 cells were seeded 0.8×10^5 in 24-well plates. Following cell attachment, a 2 h pre-treatment with vehicle control (0.1% DMSO), SFN (2.5 μM) or DL7076 (1 μM, 5 μM, or 10 μM) was done followed by doxorubicin (2.5 μM) exposure for 22 h. Co-culture cells were assembled and treated with cyclophosphamide and doxorubicin as indicated. A Cell Counting Kit-8 (Enzo) assay was carried out. Cell viability was described as a percent of vehicle control (0.1% DMSO). Cardiomyocyte, human iPSC-derived cardiomyocytes, and BT549 viability was determined with a 1 hr incubation of 6% CCK8 in WEM.

[2] = test system: H9c2 cells; assay: Phosphorylated H2AX imaging, H9c2 cells from multi-organ co-culture; type: cell-based, rat; conditions: CPA/DOX + DL7076
Experimental: Additionally, HPH were cultured in collagen-coated 6-well plates and pre-treated as described in the previous co-culture system. BT549 and H9c2 cells were plated on similar modified coverslips 0.8×10^5 cells and allowed to attach for 24 hours during hepatocyte pre-treatment. […] Following pre-treatment, BT549 coverslips were inserted adjacent to H9c2 coverslips over the sandwich cultured HPH as depicted in FIG. 43a. […] Both BT549 and H9c2 cells were harvested at indicated time points and assess for viability, apoptosis, and DNA damage as detailed further. […] Cells were fixed using 4% paraformaldehyde in PBS for 15 minutes followed by permeabilization with 0.5% Triton-X 100 in PBS for an additional 15 minutes at room temperature. Prior to blocking with 5% Bovine Serum Albumin (BSA), 3 washes with PBS were done to remove excess Triton-X. Primary antibody to mouse anti-phospho-H2AX ([…], clone JBW301, Millipore, 1:500 dilution) was prepared in PBS with 3% BSA and 0.3% Triton-X 100 and incubated overnight. […] The coverslips were visualized at 10× magnification using fluorescence microscopy (Nikon Eclipse Ti) and the amount of phosphorylation was quantified as mean intensity using brightspot detection of quadruplet images of the whole well and normalized to the vehicle control (0.1% DMSO).

[3] = test system: HO-1; assay: HO-1 expression in MDA-MB-231 cells; type: cell-based; conditions: MDA-MB-231, 10 μM, 24 hours
Experimental: Immortalized triple negative breast cancer cell lines MDA-MB-231 and BT549 were obtained from ATCC (Rockville, Md.). Additionally, the h9c2 cell line was purchased from ATCC (Rockville, Md.). […] Human iPSC-derived cardiomyocytes were maintained in Mtesr plus and supplemented according to protocol. These cells were treated for 2 hrs or an overnight as indicated. Following a 2 hr pretreatment, cells were co-treated with DOX at indicated concentrations for 6 or 22 hours. Following the overnight treatments, RNA or protein was isolated. HPH were seeded in collagen-coated 24 well plates and pretreated for 24 hrs. BT549 were seeded on inverted coverslips. After a 24 hr pretreatment, hepatocytes were co-administered as indicated and coverslips were inserted. The cell lines were used for less than 60 passages. After 24 h treatment, HPH, BT549, MDA-MB-231, and H9c2 cells were washed and a phenol-chloroform extraction was used to isolate total RNA with the TRIzol reagent (ThermoFisher, Rockford, Ill.). Reverse transcription was performed on extracted RNA (1 μg) to produce cDNA using the High Capacity cDNA Archive kit according to manufacturer's instructions (Applied Biosystems, Foster, Calif.). […] Quantification of expression changes was done by the 2^ΔΔCt method, normalizing to GAPDH as the housekeeping gene and determining the fold change compared to control values (n=3). […]

[4] = test system: H9c2 cells; assay: Oxidative stress imaging (DFDA) in H9c2 cells; type: cell-based, rat; conditions: H9c2, DL7076 5 μM, 2-hour pretreatment and 6-hour cotreatment with DOX
Experimental: H9c2 rat cardiomyocytes seeded at 0.8×10^5 in 24-well plates. […] Cells were washed 3× with PBS. Subsequently, 0.5 mL of WEM containing 20 μM 2'-7'-dichlorofluorescein diacetate (DFDA) was added to each well. The cells were incubated at 37° C. and 5% CO2 for 30 min. The oxidation of DFDA to the fluorescent dichlorofluorescein was viewed using fluorescence microscopy (Nikon Eclipse Ti) with a FITC filter at […] and quantified using Brightspot detection for fluorescent detection of triplicate images and normalized to the vehicle control (0.1% DMSO). Cells on coverslips from co-culture experiments were fixed using 4% paraformaldehyde and permealized using Triton-X 100. A primary antibody for mouse anti-phospho-H2AX ([…]) was incubated overnight. Goat anti-mouse IgG Fluor Alexa 488 (1:200) was incubated for 2 hrs. Phosphorylation was calculated through fluorescence intensity all normalized to the vehicle control.

`O=C(NCCN=C=S)c1c(-c2ccc3ccccc3c2)nc2sccn12` [DL7076, N-(2-Isothiocyanatoethyl)-6-(naphthalen-2-yl)imidazo[2,1-b]thiazole-5-carboxamide] was tested, and the “CPA cytotoxicity in BT549 cells with cotreatment” value [1] was “significantly enhanced the cytotoxicity of CPA”, the “H2AX phosphorylation (DNA damage)” value [2] was “a measured decrease in histone H2A phosphorylation” and the HO-1 induction [3] was 1.4 fold. For the same compound, the “ROS (fluorescence intensity) with cotreatment” value [4] was “significantly reduced ROS”.
